Data as given in patent US10544154B2, “Opioid receptor antagonist prodrugs” (Nirsum Laboratories, Inc., priority 2017, dated 2020).

Key:
[1] = Plasma stability, rat plasma (HPLC-MS); format: in vitro ADME; details: 10 μM, 37° C.
Experimental: Plasma stability determination of the test compounds in rat, dog, cynomolgus monkey and human plasma is performed using HPLC-MS. For rat, incubations are carried out in 96-well polypropylene plates in 5 aliquots of 70 μL each (one for each time point). […] Five time points are analyzed (0, 15, 120, 480 and 1440 min). For dog, monkey and human, test compounds (2 μM, final solvent concentration 1%) were also incubated at 37° C. and analyzed at five time points (0, 10, 30, 60 and 120 min). All incubations are performed in duplicates. The samples are analyzed by HPLC-MS. The percentage of parent compound remaining after incubation in plasma is determined.

[2] = Polymorph screening of solid state drug substances; format: physicochemical; details: for Dry method and appearance: after stirring at 50 °C for 72 hours; for XRPD results (Dried): dried solid

Compound | % remaining at time point in minutes, 0 min [1] [%] | % remaining at time point in minutes, 15 min [1] [%] | % remaining at time point in minutes, 120 min [1] [%] | % remaining at time point in minutes, 480 min [1] [%] | % remaining at time point in minutes, 1440 min [1] [%] | Dry method and appearance ([2]; Acetone) | XRPD results (Dried) ([2]; Acetone) | Dry method and appearance ([2]; EtOAc) | XRPD results (Dried) ([2]; EtOAc) | Dry method and appearance ([2]; Heptane) | XRPD results (Dried) ([2]; Heptane) | Dry method and appearance ([2]; Isopropanol) | XRPD results (Dried) ([2]; Isopropanol) | Dry method and appearance ([2]; MTBE) | XRPD results (Dried) ([2]; MTBE) | Visual observation RT ([2]; Acetone, target conc. 100 mg/ml, RT)
CCCCCCCCCCOC(=O)Oc1ccc2c3c1O[C@H]1C(=O)CC[C@@]4(O)C(C2)N(CC2CC2)CC[C@]314 [Compound 10, (4aS,7aR,12bS)-3-(cyclopropylmethyl)-4a-hydroxy-7-oxo-2,3,4,4a,5,6,7,7a-octahydro-1H-4,12-methanobenzofuro[3,2-e]isoquinolin-9-yl decyl carbonate] | 100 | 0 | 0 | 0 | 0 | Evaporation/White wax | Pattern A | Evaporation/White wax | Pattern A | Centrifugation/White wax | Pattern A | Evaporation/White wax | Pattern A | Evaporation/White wax | Pattern A | –
CCCCCCCCCCCCOC(=O)Oc1ccc2c3c1O[C@H]1C(=O)CC[C@@]4(O)C(C2)N(CC2CC2)CC[C@]314 [Compound 11, (4aS,7aR,12bS)-3-(cyclopropylmethyl)-4a-hydroxy-7-oxo-2,3,4,4a,5,6,7,7a-octahydro-1H-4,12-methanobenzofuro[3,2-e]isoquinolin-9-yl dodecyl carbonate] | 100 | 0.7 | 0.3 | 0.2 | 0 | Evaporation/white powder | Pattern A | Evaporation/white powder | Pattern A | Evaporation/white powder | Pattern B | Evaporation/white powder | Pattern A | Evaporation/white powder | Pattern A | –
C=C1CC[C@@]2(O)C3Cc4ccc(OC(=O)CCCCCCCCCCCCCCCCCCCCC)c5c4[C@@]2(CCN3CC2CC2)[C@H]1O5 [Compound 14, (4aS,7aS,12bS)-3-(cyclopropylmethyl)-4a-hydroxy-7-methylene-2,3,4,4a,5,6,7,7a-octahydro-1H-4,12-methanobenzofuro[3,2-e]isoquinolin-9-yl docosanoate] | 100 | 94 | – | – | 120 | Evaporation/white powder | Pattern A | Evaporation/white powder | Pattern A | Centrifugation/white powder | Pattern B | Evaporation/white powder | Pattern A | Evaporation/white powder | Pattern A | Slurry
C=C1CC[C@@]2(O)C3Cc4ccc(OC(=O)OCCCCCCCCCCCCCCCC)c5c4[C@@]2(CCN3CC2CC2)[C@H]1O5 [Compound 19, (4aS,7aS,12bS)-3-(cyclopropylmethyl)-4a-hydroxy-7-methylene-2,3,4,4a,5,6,7,7a-octahydro-1H-4,12-methanobenzofuro[3,2-e]isoquinolin-9-yl hexadecyl carbonate] | 100 | – | – | – | – | Evaporation/white powder | Pattern A | Evaporation/white powder | Pattern A | Evaporation/white powder | Pattern A | Evaporation/white powder | Pattern A | Evaporation/white powder | Pattern A | –
C=C1CC[C@@]2(O)C3Cc4ccc(OCOC(=O)OCCCCCCCCCCCCCC)c5c4[C@@]2(CCN3CC2CC2)[C@H]1O5 [Compound 25, (((4aS,7aS,12bS)-3-(cyclopropylmethyl)-4a-hydroxy-7-methylene-2,3,4,4a,5,6,7,7a-octahydro-1H-4,12-methanobenzofuro[3,2-e]isoquinolin-9-yl)oxy)methyl tetradecyl carbonate] | 100 | – | – | – | – | – | – | – | – | – | – | – | – | – | – | –
C=C1CC[C@@]2(O)C3Cc4ccc(OC(=O)OCCCCCCCCCCCCC)c5c4[C@@]2(CCN3CC2CC2)[C@H]1O5 [Compound 30, (4aS,7aS,12bS)-3-(cyclopropylmethyl)-4a-hydroxy-7-methylene-2,3,4,4a,5,6,7,7a-octahydro-1H-4,12-methanobenzofuro[3,2-e]isoquinolin-9-yl tridecyl carbonate] | 100 | – | – | – | – | – | – | – | – | – | – | – | – | – | – | –
C=C1CC[C@@]2(O)C3Cc4ccc(OC(=O)OCCCCCCCCCCCCCC)c5c4[C@@]2(CCN3CC2CC2)[C@H]1O5 [Compound 31, (4aS,7aS,12bS)-3-(cyclopropylmethyl)-4a-hydroxy-7-methylene-2,3,4,4a,5,6,7,7a-octahydro-1H-4,12-methanobenzofuro[3,2-e]isoquinolin-9-yl tetradecyl carbonate] | 100 | – | – | – | – | Evaporation/white powder | Pattern A | Evaporation/white powder | Pattern A | Evaporation/white powder | Pattern A | Evaporation/white powder | Pattern A | Evaporation/white powder | Pattern A | –
C=C1CC[C@@]2(O)C3Cc4ccc(OC(=O)CCCCCCC/C=C\CCCCCCCC)c5c4[C@@]2(CCN3CC2CC2)[C@H]1O5 [Compound 36, (4aS,7aS,12bS)-3-(cyclopropylmethyl)-4a-hydroxy-7-methylene-2,3,4,4a,5,6,7,7a-octahydro-1H-4,12-methanobenzofuro[3,2-e]isoquinolin-9-yl oleate] | 100 | – | – | – | – | – | – | – | – | – | – | – | – | – | – | –
CCCCCCCCCCCCCCCCCCCC(=O)Oc1ccc2c3c1O[C@H]1C(=O)CC[C@@]4(O)C(C2)N(CC2CC2)CC[C@]314 [Compound 50, (4aS,7aR,12bS)-3-(cyclopropylmethyl)-4a-hydroxy-7-oxo-2,3,4,4a,5,6,7,7a-octahydro-1H-4,12-methanobenzofuro[3,2-e]isoquinolin-9-yl icosanoate] | 100 | – | – | – | – | – | – | – | – | – | – | – | – | – | – | –
CCCCCCCCCCCCCCCCCCCCCC(=O)Oc1ccc2c3c1O[C@H]1C(=O)CC[C@@]4(O)C(C2)N(CC2CC2)CC[C@]314 [Compound 51, (4aS,7aR,12bS)-3-(cyclopropylmethyl)-4a-hydroxy-7-oxo-2,3,4,4a,5,6,7,7a-octahydro-1H-4,12-methanobenzofuro[3,2-e]isoquinolin-9-yl docosanoate] | 100 | – | – | – | – | – | – | – | – | – | – | – | – | – | – | –
CCCCCCCCCCCCCCCCCC(=O)Oc1ccc2c3c1O[C@H]1C(=O)CC[C@@]4(O)C(C2)N(CC2CC2)CC[C@]314 [Compound 54, (4aS,7aR,12bS)-3-(cyclopropylmethyl)-4a-hydroxy-7-oxo-2,3,4,4a,5,6,7,7a-octahydro-1H-4,12-methanobenzofuro[3,2-e]isoquinolin-9-yl stearate] | 100 | – | – | – | – | – | – | – | – | – | – | – | – | – | – | –
CCCCCCCCCCCCCC(=O)Oc1ccc2c3c1O[C@H]1C(=O)CC[C@@]4(O)C(C2)N(CC2CC2)CC[C@]314 [Compound 57, (4aS,7aR,12bS)-3-(cyclopropylmethyl)-4a-hydroxy-7-oxo-2,3,4,4a,5,6,7,7a-octahydro-1H-4,12-methanobenzofuro[3,2-e]isoquinolin-9-yl tetradecanoate] | 100 | – | 3.2 | 1.2 | 0 | – | – | – | – | – | – | – | – | – | – | –
CCCCCCCCCCCCCCC(=O)Oc1ccc2c3c1O[C@H]1C(=O)CC[C@@]4(O)C(C2)N(CC2CC2)CC[C@]314 [Compound 58, (4aS,7aR,12bS)-3-(cyclopropylmethyl)-4a-hydroxy-7-oxo-2,3,4,4a,5,6,7,7a-octahydro-1H-4,12-methanobenzofuro[3,2-e]isoquinolin-9-yl pentadecanoate] | 100 | 37 | 20 | 2.9 | 1.8 | – | – | – | – | – | – | – | – | – | – | –
Enalapril maleate salt [reference compound] | 100 | 44 | 2.9 | 8.2 | 4.8 | – | – | – | – | – | – | – | – | – | – | –
